Reference: PubChem BioAssay (NCI)
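Dose response: 5 concentrations. Exposure: 48 h. Format: 96-well plates. Endpoint: linear interpolation; highest concentration if not reached. At the GI50, growth is halved. TGI is the concentration that stops growth completely.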

Tests used:
Assay in all cases: NCI tumour cell line growth inhibition, 48 h
[1] = test system: PC-3 prostate
[2] = test system: TK-10 renal
[3] = test system: A498 renal
[4] = test system: HCT-116 colon
[5] = test system: IGROV1 ovarian
[6] = test system: T-47D breast
[7] = test system: LOX IMVI melanoma
[8] = test system: EKVX NSCLC
[9] = test system: CCRF-CEM leukemia
[10] = test system: KM12 colon
[11] = test system: SK-MEL-5 melanoma
[12] = test system: NCI-H460 lung
[13] = test system: NCI-H522 lung
[14] = test system: SK-MEL-28 melanoma
[15] = test system: SK-MEL-2 melanoma
[16] = test system: K-562 leukemia
[17] = test system: CAKI-1 renal
[18] = test system: HOP-62 NSCLC
[19] = test system: UACC-257 melanoma
[20] = test system: RXF 393 renal
[21] = test system: M14 melanoma
[22] = test system: UACC-62 melanoma
[23] = test system: SN12C renal
[24] = test system: RPMI-8226 leukemia
[25] = test system: SF-295 CNS
[26] = test system: OVCAR-8 ovarian
[27] = test system: SNB-75 CNS
[28] = test system: SR leukemia
[29] = test system: NCI/ADR-RES ovarian
[30] = test system: HOP-92 NSCLC
[31] = test system: MDA-MB-231 breast
[32] = test system: ACHN renal
[33] = test system: U251 CNS
[34] = test system: MCF7 breast
[35] = test system: OVCAR-5 ovarian
[36] = test system: SNB-19 CNS
[37] = test system: A549 NSCLC
[38] = test system: BT-549 breast
[39] = test system: SK-OV-3 ovarian
[40] = test system: HCT-15 colon
[41] = test system: SF-539 CNS
[42] = test system: NCI-H226 lung
[43] = test system: 786-0 renal
[44] = test system: DU-145 prostate
[45] = test system: UO-31 renal
[46] = test system: OVCAR-3 ovarian
[47] = test system: HCC-2998 colon
[48] = test system: HL-60(TB) leukemia
[49] = test system: SF-268 CNS
[50] = test system: MDA-MB-435
[51] = test system: MOLT-4 leukemia
[52] = test system: NCI-H23 lung
[53] = test system: HT29 colon
[54] = test system: HS 578T breast
[55] = test system: MALME-3M melanoma
[56] = test system: SW-620 colon
[57] = test system: COLO 205 colon
[58] = test system: OVCAR-4 ovarian

CCCCOc1nc2ccccc2cc1C1CNC(=O)c2ccccc2N1 (stereo unspecified)
GI50 [1]: 2.95 µM | TGI [1]: 13.9 µM | GI50 [2]: 5.92 µM | TGI [2]: 22.1 µM | GI50 [3]: 0.807 µM | TGI [3]: 5.3 µM | GI50 [4]: 1920 nM | TGI [4]: 5.47 µM | GI50 [5]: 4.63 µM | TGI [5]: 22.9 µM | GI50 [6]: 5.55 µM | TGI [6]: > 100 µM | GI50 [7]: 3.24 µM | TGI [7]: 15.4 µM | GI50 [8]: 5150 nM | TGI [8]: 63 µM | GI50 [9]: 2.93 µM | TGI [9]: 18.8 µM | GI50 [10]: 3310 nM | TGI [10]: 72.5 µM | GI50 [11]: 2790 nM | TGI [11]: 18.4 µM | GI50 [12]: 3.16 µM | TGI [12]: 11.5 µM | GI50 [13]: 2750 nM | TGI [13]: 21.2 µM | GI50 [14]: 4.82 µM | TGI [14]: 23.6 µM | GI50 [15]: 4.06 µM | TGI [15]: 29.6 µM | GI50 [16]: 1260 nM | TGI [16]: 14.2 µM | GI50 [17]: 3.11 µM | TGI [17]: 23.6 µM | GI50 [18]: 3.08 µM | TGI [18]: 17.7 µM | GI50 [19]: 8.16 µM | TGI [19]: > 100 µM | GI50 [20]: 2.25 µM | TGI [20]: 10.2 µM | GI50 [21]: 1530 nM | TGI [21]: 9.03 µM | GI50 [22]: 1950 nM | TGI [22]: 12.3 µM | GI50 [23]: 3.77 µM | TGI [23]: 18.9 µM | GI50 [24]: 2.81 µM | TGI [24]: 16 µM | GI50 [25]: 1630 nM | TGI [25]: 8.49 µM | GI50 [26]: 3.64 µM | TGI [26]: 15.7 µM | GI50 [27]: 1750 nM | TGI [27]: 12.2 µM | GI50 [28]: 1130 nM | TGI [28]: 12.5 µM | GI50 [29]: 2120 nM | TGI [29]: 8.76 µM | GI50 [30]: 4.57 µM | TGI [30]: 26.6 µM | GI50 [31]: 4.78 µM | TGI [31]: 26 µM | GI50 [32]: 4.31 µM | TGI [32]: 17.8 µM | GI50 [33]: 3.35 µM | TGI [33]: 14.2 µM | GI50 [34]: 2230 nM | TGI [34]: 15.4 µM | GI50 [35]: 5.4 µM | TGI [35]: 31.4 µM | GI50 [36]: 5.55 µM | TGI [36]: 44.8 µM | GI50 [37]: 4.25 µM | TGI [37]: 15.9 µM | GI50 [38]: 4.17 µM | TGI [38]: 23.2 µM | GI50 [39]: 2.94 µM | TGI [39]: 13.3 µM | GI50 [40]: 2300 nM | TGI [40]: 11.3 µM | GI50 [41]: 2.3 µM | TGI [41]: 6.86 µM | GI50 [42]: 4.82 µM | TGI [42]: 19.2 µM | GI50 [43]: 3.14 µM | TGI [43]: 11.1 µM | GI50 [44]: 3.19 µM | TGI [44]: 12 µM | GI50 [45]: 2830 nM | TGI [45]: 20 µM | GI50 [46]: 1560 nM | TGI [46]: 3.86 µM | GI50 [47]: 3.68 µM | TGI [47]: 21.5 µM | GI50 [48]: 357 nM | TGI [48]: 1900 nM | GI50 [49]: 4.24 µM | TGI [49]: > 48.5 µM | GI50 [50]: 546 nM | TGI [50]: 1820 nM | GI50 [51]: 2.95 µM | TGI [51]: 13.5 µM | GI50 [52]: 5.19 µM | TGI [52]: 35.1 µM | GI50 [53]: 3.3 µM | TGI [53]: 10.6 µM | GI50 [54]: 2630 nM | TGI [54]: 19 µM | GI50 [55]: 5.82 µM | TGI [55]: 38.4 µM | GI50 [56]: 2.59 µM | TGI [56]: 21.5 µM | GI50 [57]: 2.39 µM | TGI [57]: 5.63 µM | GI50 [58]: 4.77 µM | TGI [58]: 24.8 µM

CCN(CC)c1ccc(/C=C2/NC(=O)NC2=O)cc1
GI50 [1]: 12.1 µM | TGI [1]: > 100 µM | GI50 [2]: 9.56 µM | TGI [2]: > 100 µM | GI50 [3]: 7.44 µM | TGI [3]: > 89.3 µM | GI50 [4]: 3650 nM | TGI [4]: > 100 µM | GI50 [5]: 4.82 µM | TGI [5]: > 27.6 µM | GI50 [6]: 4.09 µM | TGI [6]: > 71.5 µM | GI50 [7]: 9.73 µM | TGI [7]: > 100 µM | GI50 [8]: 753 nM | TGI [8]: > 100 µM | GI50 [9]: 9.66 µM | TGI [9]: > 100 µM | GI50 [10]: 1650 nM | TGI [10]: > 24.2 µM | GI50 [11]: 3190 nM | TGI [11]: > 74.9 µM | GI50 [12]: 4.44 µM | TGI [12]: > 100 µM | GI50 [13]: 2180 nM | TGI [13]: 24.8 µM | GI50 [14]: 15.9 µM | TGI [14]: > 100 µM | GI50 [15]: 3.03 µM | TGI [15]: > 31.4 µM | GI50 [16]: 671 nM | TGI [16]: > 100 µM | GI50 [17]: 6.19 µM | TGI [17]: > 100 µM | GI50 [18]: 10 µM | TGI [18]: > 100 µM | GI50 [19]: 4.01 µM | TGI [19]: > 100 µM | GI50 [20]: 4.34 µM | TGI [20]: 17.5 µM | GI50 [21]: 3300 nM | TGI [21]: 38.9 µM | GI50 [22]: 1800 nM | TGI [22]: 12.9 µM | GI50 [23]: 11.1 µM | TGI [23]: > 100 µM | GI50 [24]: 5.34 µM | TGI [24]: > 100 µM | GI50 [25]: 4360 nM | TGI [25]: > 32.7 µM | GI50 [26]: 14.7 µM | TGI [26]: > 100 µM | GI50 [27]: 4010 nM | TGI [27]: > 100 µM | GI50 [28]: 605 nM | TGI [28]: > 100 µM | GI50 [29]: 1930 nM | TGI [29]: 12.2 µM | GI50 [30]: 9.01 µM | TGI [30]: > 93.1 µM | GI50 [31]: 28.7 µM | TGI [31]: > 100 µM | GI50 [32]: 26.5 µM | TGI [32]: > 100 µM | GI50 [33]: 6.05 µM | TGI [33]: > 100 µM | GI50 [34]: 2840 nM | TGI [34]: > 100 µM | GI50 [35]: 10.5 µM | TGI [35]: > 100 µM | GI50 [36]: 15.5 µM | TGI [36]: > 100 µM | GI50 [37]: 9.9 µM | TGI [37]: > 100 µM | GI50 [38]: 7.49 µM | TGI [38]: > 100 µM | GI50 [39]: 6.84 µM | TGI [39]: > 100 µM | GI50 [40]: 3210 nM | TGI [40]: > 100 µM | GI50 [41]: 5.57 µM | TGI [41]: 53.6 µM | GI50 [42]: > 95.2 µM | TGI [42]: > 100 µM | GI50 [43]: 10.9 µM | TGI [43]: > 100 µM | GI50 [44]: 5.7 µM | TGI [44]: 32.6 µM | TGI [45]: > 100 µM | GI50 [46]: 2410 nM | TGI [46]: 7.18 µM | GI50 [47]: 16.2 µM | TGI [47]: > 100 µM | GI50 [48]: 4900 nM | TGI [48]: > 100000 nM | GI50 [49]: 4.39 µM | TGI [49]: > 35.8 µM | GI50 [50]: 420 nM | TGI [50]: 3530 nM | GI50 [51]: 17.6 µM | TGI [51]: > 100 µM | GI50 [52]: 7.97 µM | TGI [52]: > 100 µM | GI50 [53]: 2.83 µM | TGI [53]: > 100 µM | GI50 [54]: 1230 nM | TGI [54]: > 28 µM | GI50 [55]: 16 µM | TGI [55]: > 100 µM | GI50 [56]: 3.47 µM | TGI [56]: > 100 µM | GI50 [57]: 4.63 µM | TGI [57]: 23.6 µM | GI50 [58]: 22.6 µM | TGI [58]: > 100 µM
